Read-outs that look alike come from different tables or passages of the source.

Data set [1] has as its system Scleraxis (Scx) gene transcriptional activation, TT-D6 Scx-luciferase (ScxL) cell line. Put plainly: SCX-LUC in vitro assay (scleraxis-luciferase reporter). To be noted: read-out: Scx-Luc (EC50 μM). It counts as cell-based, mouse.
The nature of data set [2]: Cumulative release of microparticle formulations in PBS buffer (FIG. 1). The class given is physicochemical. The conditions noted are these: incorporated into PLGA microparticles; following the initial burst; PBS buffer pH 7.4, 1% Tween 20.
Data set [3] in a line: In-vivo release from microparticles in a rat model. To be noted: PLGA microparticles.
The mark [4] stands for this setting: Mus musculus, 96 h, TT-D6 Scx-luciferase cells, 1 ng/ml TGFβ1, four days.

Consider `Nc1n[nH]c2ccc(-c3ccc(S(=O)(=O)NC4CCC(O)(C(F)(F)F)CC4)cc3Cl)nc12` [4-(3-amino-1H-pyrazolo[4,3-b]pyridin-5-yl)-3-chloro-N-((1R,4R)-4-hydroxy-4-(trifluoromethyl)cyclohexyl)benzenesulfonamide], for which the 50% effective concentration (EC50) in data set [1] (TT-D6 Scx-luciferase cells, 1 ng/ml TGFβ1, four days) was greater than 10 µM.

Take `CNS(=O)(=O)c1ccc(S(=O)(=O)Nc2ccc(-c3ccc4[nH]nc(N)c4n3)c(Cl)c2)cc1` [Example 76, N1-(4-(3-amino-1H-pyrazolo[4,3-b]pyridin-5-yl)-3-chlorophenyl)-N4-methylbenzene-1,4-disulfonamide]: the EC50 in data set [1] (setting [4]) was determined as 0.003 µM. Still for that read-out and setting: then `Nc1n[nH]c2ccc(-c3ccc(S(=O)(=O)NC4CCS(=O)(=O)CC4)cc3Cl)nc12` [Example 50, 4-(3-amino-1H-pyrazolo[4,3-b]pyridin-5-yl)-3-chloro-N-(1,1-dioxidotetrahydro-2H-thiopyran-4-yl)benzenesulfonamide], with greater than 10 µM; and `Nc1n[nH]c2ccc(-c3ccc(S(=O)(=O)N4CCC[C@H]4CO)cc3Cl)nc12` [(S)-(1-((4-(3-amino-1H-pyrazolo[4,3-b]pyridin-5-yl)-3-chlorophenyl)sulfonyl)pyrrolidin-2-yl)methanol], with greater than 10 µM. `Nc1n[nH]c2ccc(-c3ccc(NS(=O)(=O)c4ccccc4)cc3Cl)nc12` [Example 46, N-(4-(3-amino-1H-pyrazolo[4,3-b]pyridin-5-yl)-3-chlorophenyl)benzenesulfonamide]: the concentration giving a half-maximal response (EC50) in data set [1] (setting [4]) amounted to 0.01 µM. Consider `Nc1n[nH]c2ccc(-c3ccc(S(=O)(=O)N[C@H]4CCC[C@H]4O)cc3Cl)nc12` [Example 35, 4-(3-amino-1H-pyrazolo[4,3-b]pyridin-5-yl)-3-chloro-N-((1S,2R)-2-hydroxycyclopentyl)benzenesulfonamide], for which, in data set [1] (Mus musculus, 96 h), the EC50 is 2.73 µM. With `Cc1cc(S(=O)(=O)N[C@H]2C[C@](O)(C(F)(F)F)C2)ccc1-c1ccc2[nH]nc(N)c2n1` [Example 2, 4-(3-amino-1H-pyrazolo[4,3-b]pyridin-5-yl)-N-((1s,3s)-3-hydroxy-3-(trifluoromethyl)cyclobutyl)-3-methylbenzenesulfonamide], the “period of steady state release of drug” value in data set [2] was 21 days. The compound further returned an extended release in-vivo in data set [3] of 4 weeks.
